From patent US12178838B2, “Synthetic neuromodulatory peptides” (Lactocore, Inc., priority 2019, dated 2024)

System: Sprague Dawley rats
Type: in vivo
Settings: FQSE 0.5 mg/kg i.n.; diazepam 2 mg/kg IP
Description: The five doses of FQSE (SEQ ID NO:10) (0.01, 0.1, 0.5, 1 and 3 mg/kg, CS, Menlo Park, CA) were prepared fresh for each test day in sterile saline and administered intranasally (i.n.) 30 minutes prior to testing. Fifteen rats per group per peptide dose were tested with the exception that there were twenty rats in the vehicle (0) group. Each dose was administered in a randomized order across rats. Prior to dosing, the rats were lightly anesthetized (till loss of righting reflex) with isoflurane (2.5%, 0.5 L/min oxygen), placed in the recumbent position, then a thin plastic pipette (Fischer Scientific) inserted into the nares and peptide administered at a volume of 15-20 uL per nares. […]
Open field tests occurred in open field apparatus constructed of gray Plexiglas (17″L×17″ W×12″ H (43.2 cm×43.2 cm×30.5 cm; Noldus, Leesburg, VA) with digital cameras positioned above the arenas to detect different measures of activity using specialized software (Ethovision, XT12). Rats were first allowed to acclimate to the testing room for 30 minutes while in their home cage. The test was initiated by placing the animal in the center of the open field chamber and behavior recorded for 30 minutes. The observer was not in the room during testing. Testing was conducted under red-light. Arenas were cleaned thoroughly between subjects with LpH disinfectant. […]

SMILES: CN1C(=O)CN=C(c2ccccc2)c2cc(Cl)ccc21 [Diazepam]
- center zone entries: 54.3±6.2
- total distance: 5289±263 cm
